Test results from patent publication US6355799B1, “Substituted benzene compounds, process for their preparation, and herbicidal and defoliant compositions containing them” (ISK Americas Incorporated, priority 1997, dated 2002).

Legend:
Assay type in all cases: in vivo
[1] = system: redroot pigweed (Amaranthus retroflexus, AMARE); experiment: Pre-emerge test, greenhouse herbicide activity screening; conditions: pre-emerge, rated 14 days after application, 0 = no damage, 100 = complete death
Summary of the method: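 Compounds in acetone were track-sprayed at 187 l/ha, 15–1000 g ai/ha, onto sandy loam pots. Pre-emerge seeds were sown one day before spraying, with surface watering afterwards. Post-emerge plants were at the 2–3 leaf stage and sprayed with 0.25% v/v non-ionic surfactant. Injury was rated 0–100 at 14 days.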

[2] = system: upland rice (Oryza sp., var. Tebonnet, RICE); experiment: Pre-emerge test, crop safety; conditions: pre-emerge, rated 14 days after application, 0 = no damage, 100 = complete death
Summary of the method: (§1)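 Sandy loam pots; pre-emerge: sown 1 d pre-spray, surface-watered after, then bottom-watered. Post-emerge: sown 8–21 d before, 2–3 leaf stage, + 0.25% v/v NIS, bottom-watered. Acetone, 187 l/ha track spray, 15–1000 g ai/ha. 0–100 injury score, day 14.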

[3] = system: field corn (Zea mays L., var. Dekalb 535, CORN); experiment: Pre-emerge test, crop safety; conditions: pre-emerge, rated 14 days after application, 0 = no damage, 100 = complete death
Summary of the method: as §1

[4] = system: upland rice (Oryza sp., var. Tebonnet, RICE); experiment: Post-emerge test, crop safety; conditions: phytotoxicity rating 0-100 (0 no damage, 100 complete death), 14 days after application
Summary of the method: (§2)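 Compounds in acetone were track-sprayed at 15-1000 g ai/ha (187 l/ha) on sandy loam pots: pre-emerge one day after seeding, post-emerge at 2-3 leaf stage with 0.25% v/v non-ionic surfactant. Phytotoxicity was rated 14 days later on a 0 (no damage) to 100 (complete death) scale.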

[5] = system: field corn (Zea mays L., var. Dekalb 535, CORN); experiment: Post-emerge test, crop safety; conditions: phytotoxicity rating 0-100 (0 no damage, 100 complete death), 14 days after application
Summary of the method: as §2

[6] = system: lambsquarters (Chenopodium album, CHEAL); experiment: Post-emerge test, greenhouse herbicide activity screening; conditions: phytotoxicity rating 0-100 (0 no damage, 100 complete death), 14 days after application
Summary of the method: (§3)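 Visual ratings on a 0-100 scale (0 no damage, 100 all plants dead) were taken at 14 days after treatment. Rates of 15-1000 g ai/ha in acetone, 187 l/ha, were sprayed onto soil one day after planting (pre-emerge) or onto 2-3 leaf plants with 0.25% v/v surfactant (post-emerge).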

[7] = system: barnyardgrass (Echinochloa crus-galli, ECHCG); experiment: as above; conditions: phytotoxicity rating 0-100 (0 no damage, 100 complete death), 14 days after application
Summary of the method: as §3

[8] = system: velvetleaf (Abutilon theophrasti, ABUTH); experiment: as above; conditions: phytotoxicity rating 0-100 (0 no damage, 100 complete death), 14 days after application
Summary of the method: as §3

[9] = system: redroot pigweed (Amaranthus retroflexus, AMARE); experiment: as above; conditions: phytotoxicity rating 0-100 (0 no damage, 100 complete death), 14 days after application
Summary of the method: as §3

[10] = system: large crabgrass (Digitaria sanguinalis, DIGSA); experiment: as above; conditions: phytotoxicity rating 0-100 (0 no damage, 100 complete death), 14 days after application
Summary of the method: as §3

[11] = system: green foxtail (Setaria viridis, SETVI); experiment: as above; conditions: phytotoxicity rating 0-100 (0 no damage, 100 complete death), 14 days after application
Summary of the method: as §3

[12] = system: sicklepod (Cassia obtusifolia, CASOB); experiment: as above; conditions: phytotoxicity rating 0-100 (0 no damage, 100 complete death), 14 days after application
Summary of the method: as §3

[13] = system: johnsongrass (Sorghum halepense, SORHA); experiment: as above; conditions: phytotoxicity rating 0-100 (0 no damage, 100 complete death), 14 days after application
Summary of the method: as §3

[14] = system: ivyleaf morningglory (Ipomoea hederacea, IPOHE); experiment: as above; conditions: phytotoxicity rating 0-100 (0 no damage, 100 complete death), 14 days after application
Summary of the method: as §3

[15] = system: lambsquarters (Chenopodium album, CHEAL); experiment: Pre-emerge test, greenhouse herbicide activity screening; conditions: pre-emerge, rated 14 days after application, 0 = no damage, 100 = complete death
Summary of the method: as §2

[16] = system: barnyardgrass (Echinochloa crus-galli, ECHCG); experiment: as above; conditions: pre-emerge, rated 14 days after application, 0 = no damage, 100 = complete death
Summary of the method: as §2

[17] = system: velvetleaf (Abutilon theophrasti, ABUTH); experiment: as above; conditions: pre-emerge, rated 14 days after application, 0 = no damage, 100 = complete death
Summary of the method: as §2

[18] = system: large crabgrass (Digitaria sanguinalis, DIGSA); experiment: as above; conditions: pre-emerge, rated 14 days after application, 0 = no damage, 100 = complete death
Summary of the method: as §2

[19] = system: green foxtail (Setaria viridis, SETVI); experiment: as above; conditions: pre-emerge, rated 14 days after application, 0 = no damage, 100 = complete death
Summary of the method: as §2

[20] = system: sicklepod (Cassia obtusifolia, CASOB); experiment: as above; conditions: pre-emerge, rated 14 days after application, 0 = no damage, 100 = complete death
Summary of the method: as §2

[21] = system: johnsongrass (Sorghum halepense, SORHA); experiment: as above; conditions: pre-emerge, rated 14 days after application, 0 = no damage, 100 = complete death
Summary of the method: as §2

[22] = system: ivyleaf morningglory (Ipomoea hederacea, IPOHE); experiment: as above; conditions: pre-emerge, rated 14 days after application, 0 = no damage, 100 = complete death
Summary of the method: as §2

## CCOC(=O)C(C)Oc1c(Cl)cc(F)c(-n2c(=O)cc(C(F)(F)F)n(C)c2=O)c1N (centres unmarked) [Compound 1-60]
[1]; 63 g ai/ha
  Pre-emerge Herbicidal Activity AMARE (phytotoxicity rating, scale 0-100): 100
[1]; 250 g ai/ha
  Pre-emerge Herbicidal Activity AMARE (phytotoxicity rating, scale 0-100): 100
[2]; 63 g ai/ha
  Pre-emerge crop damage RICE (phytotoxicity rating, scale 0-100): 40
[2]; 250 g ai/ha
  Pre-emerge crop damage RICE (phytotoxicity rating, scale 0-100): 95
[3]; 63 g ai/ha
  Pre-emerge crop damage CORN (phytotoxicity rating, scale 0-100): 50
[3]; 250 g ai/ha
  Pre-emerge crop damage CORN (phytotoxicity rating, scale 0-100): 95
[4]; 63 g ai/ha
  Post-emerge Herbicidal Activity RICE (crop damage): 10
[4]; 250 g ai/ha
  Post-emerge Herbicidal Activity RICE (crop damage): 40
[5]; 63 g ai/ha
  Post-emerge Herbicidal Activity CORN (crop damage): 0
[5]; 250 g ai/ha
  Post-emerge Herbicidal Activity CORN (crop damage): 50
[6]; 63 g ai/ha
  Post-emerge Herbicidal Activity CHEAL: 99
[6]; 250 g ai/ha
  Post-emerge Herbicidal Activity CHEAL: 100
[7]; 63 g ai/ha
  Post-emerge Herbicidal Activity ECHCG: 0
[7]; 250 g ai/ha
  Post-emerge Herbicidal Activity ECHCG: 20
[8]; 63 g ai/ha
  Post-emerge Herbicidal Activity ABUTH: 100
[8]; 250 g ai/ha
  Post-emerge Herbicidal Activity ABUTH: 100
[9]; 63 g ai/ha
  Post-emerge Herbicidal Activity AMARE: 90
[9]; 250 g ai/ha
  Post-emerge Herbicidal Activity AMARE: 100
[10]; 63 g ai/ha
  Post-emerge Herbicidal Activity DIGSA: 0
[10]; 250 g ai/ha
  Post-emerge Herbicidal Activity DIGSA: 50
[11]; 63 g ai/ha
  Post-emerge Herbicidal Activity SETVI: 0
[11]; 250 g ai/ha
  Post-emerge Herbicidal Activity SETVI: 10
[12]; 63 g ai/ha
  Post-emerge Herbicidal Activity CASOB: 50
[12]; 250 g ai/ha
  Post-emerge Herbicidal Activity CASOB: 90
[13]; 63 g ai/ha
  Post-emerge Herbicidal Activity SORHA: 0
[13]; 250 g ai/ha
  Post-emerge Herbicidal Activity SORHA: 20
[14]; 63 g ai/ha
  Post-emerge Herbicidal Activity IPOHE: 90
[14]; 250 g ai/ha
  Post-emerge Herbicidal Activity IPOHE: 100
[15]; 63 g ai/ha
  Pre-emerge Herbicidal Activity CHEAL (phytotoxicity rating, scale 0-100): 100
[15]; 250 g ai/ha
  Pre-emerge Herbicidal Activity CHEAL (phytotoxicity rating, scale 0-100): 100
[16]; 63 g ai/ha
  Pre-emerge Herbicidal Activity ECHCG (phytotoxicity rating, scale 0-100): 50
[16]; 250 g ai/ha
  Pre-emerge Herbicidal Activity ECHCG (phytotoxicity rating, scale 0-100): 95
[17]; 63 g ai/ha
  Pre-emerge Herbicidal Activity ABUTH (phytotoxicity rating, scale 0-100): 100
[17]; 250 g ai/ha
  Pre-emerge Herbicidal Activity ABUTH (phytotoxicity rating, scale 0-100): 100
[18]; 63 g ai/ha
  Pre-emerge Herbicidal Activity DIGSA (phytotoxicity rating, scale 0-100): 95
[18]; 250 g ai/ha
  Pre-emerge Herbicidal Activity DIGSA (phytotoxicity rating, scale 0-100): 100
[19]; 63 g ai/ha
  Pre-emerge Herbicidal Activity SETVI (phytotoxicity rating, scale 0-100): 95
[19]; 250 g ai/ha
  Pre-emerge Herbicidal Activity SETVI (phytotoxicity rating, scale 0-100): 100
[20]; 63 g ai/ha
  Pre-emerge Herbicidal Activity CASOB (phytotoxicity rating, scale 0-100): 70
[20]; 250 g ai/ha
  Pre-emerge Herbicidal Activity CASOB (phytotoxicity rating, scale 0-100): 100
[21]; 63 g ai/ha
  Pre-emerge Herbicidal Activity SORHA (phytotoxicity rating, scale 0-100): 80
[21]; 250 g ai/ha
  Pre-emerge Herbicidal Activity SORHA (phytotoxicity rating, scale 0-100): 100
[22]; 63 g ai/ha
  Pre-emerge Herbicidal Activity IPOHE (phytotoxicity rating, scale 0-100): 90
[22]; 250 g ai/ha
  Pre-emerge Herbicidal Activity IPOHE (phytotoxicity rating, scale 0-100): 100
